The nature of this series: gradient 5% acetonitrile 3 min, to 50% in 2 min, to 85% in 15 min, held 3 min, 100 µL/min. The settings on record: column: Zorbax Extend-C18 2.1 x 50 mm; eluents: water / acetonitrile, 0.1% formic acid. In short, it runs like this:
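Over 3 months, pure standards in mixtures of ~100 molecules were run by HPLC coupled to a quadrupole time-of-flight mass spectrometer in positive and negative ionization mode. The column was a Zorbax Extend-C18 (2.1 × 50 mm, 1.8 μm) at 100 μL/min, eluted with water and acetonitrile each holding 0.1% formic acid, with 40 μL dead and 900 μL dwell volumes. Retention time was determined from adduct peaks chosen by software and checked manually.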
As to `CCN1CCCn2cc(S(=O)(=O)N3CCN(c4ccccc4Cl)CC3)cc2C1=O`, the RP-LC retention time came to 912 s. Next, `Cc1ccc(NS(=O)(=O)c2cc(-c3[nH]ncc3C(=O)N(C)C)oc2C)cc1Cl`: 730 s; `Cc1ccc(-c2nnc(Cc3nc(-c4cccc(Br)c4)no3)o2)cc1C`: 1270 s; `O=C(Cn1nc2c(Oc3cccc(F)c3)nccn2c1=O)Nc1cc(F)ccc1F`: 885 s.

In the case of `CCc1nnc(-c2ccc(S(=O)(=O)N3CCN(C(C)C)CC3)o2)o1`, the RP-LC retention time came to 592 s.

For the compound `CCOC(=O)N1CCC2(CC1)N=C(c1ccc(Cl)cc1)CC(c1cccc(OC)c1O)N2` (centres undefined), the RP-LC retention time was found to be 781 s.

In the case of `COc1cc(NC(=O)CN2CCN(Cc3ccc(C)cc3)C(=O)C2=O)cc(OC)c1OC`, the RP-LC retention time was determined as 709 s. Next, `Cc1cc(=O)n(CC(=O)NCc2ccc(F)cc2)c(N2CCOCC2)n1`: 647 s. On to `CC(C)CC(=O)N1CC(c2nc(-c3cccnc3)no2)C2(CCOCC2)C1` (centres undefined), for which the RP-LC retention time came to 706 s. The compound `CCc1ccc(S(=O)(=O)c2cnc(N3CCCC(C)C3)nc2N)cc1` (centres undefined) yielded an RP-LC retention time of 1150 s.

Compound `Cc1ccc(S(=O)(=O)n2nc(OC(=O)c3ccc(Cl)cc3Cl)cc2N)cc1` came in with an RP-LC retention time of 1030 s. The compound `CC1=C(C(=O)NCCCN2CCN(Cc3ccccc3)CC2)C2(CCCCC2)OC1=O` gave an RP-LC retention time of 627 s. `C[C@@H]1COC(Nc2ccc3ncnc(Nc4ccc(OCc5nccs5)c(Cl)c4)c3c2)=N1` returned an RP-LC retention time of 634 s. Then `COCCn1c(SCc2nc(-c3ccccc3)no2)nc2cc3c(cc2c1=O)OCO3`, with 1040 s; and `COCC(=O)Nc1nc(-c2ccc3c(c2)N(C)C(=O)CO3)c(C)s1`, with 764 s; and `CCc1ccc(Oc2nccnc2N2CCC(C(=O)N3CCN(c4ccccn4)CC3)CC2)cc1`, with 734 s. Next, `COc1ccc2[nH]c3c(c2c1)CCN(C(=O)C1CC1)C3c1ccc(F)cc1` (centres undefined): 949 s; `CCOC(=O)c1ccc(NC(=O)C2CCN(S(=O)(=O)c3ccc4[nH]c(=O)ccc4c3)CC2)cc1`: 783 s. For the compound `CCN(CC)S(=O)(=O)N1CCC(C(=O)NCc2ccc(OC)cc2)CC1`, the RP-LC retention time worked out at 795 s. `CCn1nccc1C(=O)N1CCCC1c1cccc(C)c1` (centres undefined) displayed an RP-LC retention time of 849 s. Then `CCn1ccc(NC(=O)c2cccc(C)c2)n1`, with 743 s; and `CCOCCOC1CCN(C(=O)c2ccoc2)CC1`, with 679 s; and `Cc1nc(-c2csc(S(=O)(=O)N3CCC(C(=O)NC4CCCCCCC4)CC3)c2)no1`, with 995 s. `CCCN(CCC)S(=O)(=O)c1cc(-c2nnc(C)o2)co1` displayed an RP-LC retention time of 897 s. Then `Cc1ccn2c(NC(=O)CC(C)(C)C)c(-c3ccccc3)nc2c1`, with 666 s. Then `CCOC(=O)Nc1ccc(S(=O)(=O)N2CCC(c3nc4ccccc4[nH]3)CC2)cc1`, with 582 s.

Consider `O=C(C1CC(=O)N(c2ccc3c(c2)CCN3C(=O)C2CC2)C1)N1CCCCCC1` (centres undefined), for which the RP-LC retention time worked out at 750 s. Compound `Cn1c(CNC(=O)C2CCc3sc(C(=O)N4CCCC4)cc3C2)nc2ccccc21` (centres undefined) showed an RP-LC retention time of 602 s. Then `CCCNC(=O)C1CCN(S(=O)(=O)c2cc(C(=O)N3CCCCCC3)cs2)CC1`, with 783 s; and `CC(C)OCCCNC(=O)c1ccc2c(=O)n(-c3ccccc3)c(N3CCCC3)nc2c1`, with 777 s.

Compound `CC(C)CN1C(=O)CCc2cc(NS(=O)(=O)c3ccc(F)cc3)ccc21` displayed an RP-LC retention time of 861 s. For `COC(=O)c1nnn(-c2ccc(C)cc2)c1C(=O)OC`, the RP-LC retention time was found to be 623 s.

`Fc1cc(F)c2c(c1)C1C=CCC1C(c1cccnc1)N2` (centres undefined) yielded an RP-LC retention time of 706 s. On to `Cc1c(Cl)cccc1-n1ccnc(NC(=O)Nc2ccc3c(c2)OCO3)c1=O`, for which the RP-LC retention time amounted to 995 s. `O=C1[C@H](Cc2ccc(O)cc2)N2C(=O)CCN(C(=O)NCc3ccccc3)[C@H]2CN1Cc1cccc2ccccc12` came in with an RP-LC retention time of 847 s. `O=C1CC(c2ccccc2)N1` (centres undefined) showed an RP-LC retention time of 646 s. Compound `Brc1c(Br)c(Br)c2n[nH]nc2c1Br` yielded an RP-LC retention time of 1010 s. For the compound `COc1ccc(-c2noc(-c3nc(C)no3)n2)cc1OC`, the RP-LC retention time was 888 s.

`Cn1nc(C(=O)Nc2ccc(CC(=O)NCC(F)(F)F)cc2)ccc1=O` had an RP-LC retention time of 622 s. Then `COc1ccc(-c2nc(C3CC(=O)N(c4ccc(OC)c(OC)c4)C3)no2)cc1F` (centres undefined), with 853 s; and `CCn1nccc1C(=O)N1CCN(c2cc(-c3ccc(Cl)cc3)[nH]n2)CC1`, with 781 s. Then `C[C@H]1CN(C(=O)c2cc(Cl)ccc2F)C[C@@H]1c1nc(-c2ccncc2)no1`, with 857 s. On to `COC1C(=O)N(c2cccc(F)c2)C12CCNCC2` (centres undefined), for which the RP-LC retention time came out at 604 s. Next, `CNC(=O)C1CCCN(c2nc3ncn(CC(=O)Nc4ccccc4F)c(=O)c3s2)C1` (centres undefined): 634 s; `CCOC(=O)c1cn(-c2c(F)c(F)c(C#N)c(F)c2F)c2c(F)c(F)c(F)cc2c1=O`: 981 s.

As for `COCCNCc1c(C(=O)O)c(C)n(Cc2ccc(Cl)cc2)c1C`, the RP-LC retention time was 704 s. Then `Cc1ccc(N2C=C(C(=O)N3CCCC3)S(=O)(=O)c3ccccc32)cc1`, with 802 s; and `Cn1cc(CCN2CCN(S(=O)(=O)c3cccc(Cl)c3)CC2)c2cccnc21`, with 650 s. Then `COc1ccccc1N1CCN(CCn2c(=O)c3c(c4ccccc4n3C)n(C)c2=O)CC1`, with 784 s; and `COc1nccnc1N1CCC(N(C)C(=O)Cc2c(C)noc2C)C1` (centres undefined), with 642 s. In the case of `Cc1cc(S(=O)(=O)N2CCc3c(c(-c4nnc(-c5ccccc5)o4)nn3C)C2)ccc1F`, the RP-LC retention time came out at 703 s. Take `CC(C)OCCCNC(=O)c1ccc2c(c1)CCCN2S(C)(=O)=O`: the RP-LC retention time turned out to be 767 s. `O=C(CCOc1ccc(F)cc1)N1CCN(Cc2ccccc2)CC1` yielded an RP-LC retention time of 575 s.

For the compound `Cc1ccnc(N2CCCC(C(=O)NCc3ccc(N(C)C)cc3)C2)n1` (centres undefined), the RP-LC retention time is 561 s. Next, `CC(=O)N1CCc2cc(N3CC(C(=O)NCC4CCCO4)CC3=O)ccc21` (centres undefined): 590 s; `Cc1cccc(NC(=O)N2CCc3c(c(-c4nnc(-c5ccc(F)cc5)o4)nn3C)C2)c1C`: 854 s; `CSc1cccc(NC(=O)N2CCN(Cc3nc4cccnc4n3-c3ccc(F)cc3)CC2)c1`: 711 s.

`O=C(Nc1ccc(Br)cc1)C1CCCN(c2ncc(-c3ccccc3)cn2)C1` (centres undefined) showed an RP-LC retention time of 1240 s. As for `O=S(=O)(c1ccccc1)N1CCN(c2cnn3c(C4CC4)nnc3c2)CC1`, the RP-LC retention time was 698 s. Next, `Cc1ccccc1OCC(O)CN1CCN(Cc2ccc3c(c2)OCO3)CC1` (centres undefined): 566 s; `COc1ccc(S(=O)(=O)N2C[C@H]3CN(S(=O)(=O)c4ccccc4)C[C@@H](C2)O3)cc1`: 893 s. `NC(=O)C1CCN(C(=O)c2nnn(-c3ccc(Cl)cc3)c2-c2cccnc2)CC1` returned an RP-LC retention time of 633 s. Then `CCOC(=O)C1CCN(Cc2nc(-c3ccc(N4CCCC4)nc3)no2)CC1`, with 572 s; and `CCC1(O)CCOC2(CCN(Cc3cc(OC)cc(OC)c3)CC2)C1` (centres undefined), with 568 s; and `O=C(Nc1cccc([N+](=O)[O-])c1)C(=O)Nc1ccc2c(c1)N(C(=O)C1CC1)CCC2`, with 883 s. For the compound `O=C(c1ccoc1)N1CC(Oc2ccc(-c3nc(-c4ccccc4)no3)cc2)C1`, the RP-LC retention time came to 1040 s. Next, `C[C@@H](Cc1ccc(OCC(=O)O)cc1)NC[C@@H](O)c1cccc(Cl)c1`: 704 s. As to `O=C(NC1CCCCC1)c1ccc2c(c1)nc1n2CCN(C2CCCCC2)C1=O`, the RP-LC retention time is 796 s.

`O=C(Nc1ccc(Cl)c(Cl)c1)Nc1ccc([N+](=O)[O-])cn1` displayed an RP-LC retention time of 1100 s. Next, `CN(C)C(CNC(=O)c1ccccc1C(F)(F)F)c1cn(C)c2ccccc12` (centres undefined): 602 s; `CCN1CCN(c2ccc(-c3ccc(OC)c(S(=O)(=O)N4CCOCC4)c3)nn2)CC1`: 585 s.

The compound `CN(Cc1ccco1)C(=O)CC1CCN(C(=O)c2cc3ccccc3[nH]2)CC1` came in with an RP-LC retention time of 826 s. Then `CCS(=O)(=O)Nc1ccc(C2(C(=O)NCc3cc(F)cc(F)c3)CCCCC2)cc1`, with 972 s. `NS(=O)(=O)c1ccc(NS(=O)(=O)c2ccc3onc(C(=O)N4CCCCC4)c3c2)cc1` came in with an RP-LC retention time of 782 s. Next, `Cc1ccc(-c2nc3cnccn3c2Nc2ccc(C(=O)O)cc2)cc1`: 706 s; `CCOC(=O)c1[nH]c(C)c(CCC(=O)N2CCCC(C(=O)NCc3ccc(N(C)C)cc3)C2)c1C` (centres undefined): 629 s. Consider `O=C(NC1CCN(Cc2ccccc2)CC1)c1csc(-c2ccc(N3CCCC3)nc2)n1`, for which the RP-LC retention time is 565 s.

In turn, `Cc1ccc(CNC(=O)C2CCCN(c3cnc4nccnc4c3)C2)o1` (centres undefined) returned an RP-LC retention time of 772 s. Next, `COc1cc(-c2noc(Cc3nnc(-c4cc(C)cc(C)c4)o3)n2)cc(OC)c1OC`: 1050 s.

Source of the values: the METLIN SMRT retention time set (Domingo-Almenara et al. 2019).
